According to PubChem BioAssay (NCI):
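Values below derive from 48-hour exposures of cells grown in 96-well plates, with endpoints linearly interpolated between the two concentrations bracketing the appropriate inhibition level. Definition used: TGI = concentration required for complete inhibition of growth.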

Columns and labels:
Test in all cases: inhibition of tumour cell growth, NCI panel, 48 h
ACHN renal = test system: ACHN renal
CAKI-1 renal = test system: CAKI-1 renal
K-562 leukemia = test system: K-562 leukemia
MCF7 breast = test system: MCF7 breast
NCI-H226 lung = test system: NCI-H226 lung
RPMI-8226 leukemia = test system: RPMI-8226 leukemia
SF-268 CNS = test system: SF-268 CNS
SK-MEL-5 melanoma = test system: SK-MEL-5 melanoma
SN12C renal = test system: SN12C renal
SR leukemia = test system: SR leukemia
UACC-257 melanoma = test system: UACC-257 melanoma

Row | SMILES | TGI (ACHN renal) | TGI (CAKI-1 renal) | TGI (K-562 leukemia) | TGI (MCF7 breast) | TGI (NCI-H226 lung) | TGI (RPMI-8226 leukemia) | TGI (SF-268 CNS) | TGI (SK-MEL-5 melanoma) | TGI (SN12C renal) | TGI (SR leukemia) | TGI (UACC-257 melanoma)
1 | OC(c1cccs1)c1cc2ccccc2s1 (centres undefined) | > 10 µM | > 10 µM | > 10 µM | > 10 µM | > 10 µM | > 10 µM | > 10 µM | > 10 µM | > 10 µM | > 10 µM | > 10 µM
2 | C=CC1OC(CCCOC(=O)C(C)(C)C)O[C@@H]1CC (some centres undefined) | > 100 µM | > 100 µM |  | > 100 µM | > 100 µM | > 100 µM | > 100 µM | > 100 µM | > 100 µM | > 100 µM | > 100 µM
3 | COC(=O)C1=NN2c3ccccc3C(=O)OCCC2C1 (centres undefined) | > 100 µM | > 100 µM | > 100 µM | > 100 µM | > 100 µM | > 100 µM | > 100 µM | > 100 µM | > 100 µM | > 100 µM | > 100 µM
4 | CCOC(=O)CCC(C(=O)OCC)n1nc2ccc(Nc3c(C)[n+]([O-])c4cc(Cl)ccc4[n+]3[O-])cc2n1 (centres undefined) | > 100 µM | > 100 µM | > 100 µM | > 100 µM | > 100 µM | > 100 µM | > 100 µM | > 100 µM | > 100 µM | > 100 µM | > 100 µM
5 | Oc1cc(Cl)cc2cc(Br)cnc12 | > 32.1 µM | > 27.3 µM | > 22.6 µM | > 29.9 µM | > 88.5 µM | 47.9 µM | > 48.1 µM | 3.24 µM | > 100 µM | > 20.1 µM | > 23.9 µM
6 | O=[N+]([O-])CC(SCc1ccccc1)c1ccc2c(c1)OCO2 (centres undefined) | 28.3 µM | 28.6 µM | 4.19 µM | 9.73 µM | 23.2 µM | 4.03 µM | > 61.2 µM | 25 µM | 25.7 µM | 8.51 µM | 16 µM
7 | O=C1Oc2ccccc2C(=O)/C1=C/N1C(=O)/C(=C/c2ccc([N+](=O)[O-])cc2)SC1=S | 34 µM | 51.3 µM | 69.8 µM | > 100 µM | 53.4 µM | 42.1 µM | 75.4 µM | 46.4 µM | 51.6 µM | > 100 µM | 90.7 µM
8 | COC(=O)c1ccc2n1C1CC3CC(CC2C3)C1 | > 100 µM | > 100 µM | > 100 µM | > 100 µM | > 100 µM | > 100 µM | > 100 µM | > 100 µM | > 100 µM | > 100 µM | > 100 µM
9 | Cc1cccc(-c2cc(=O)c3ccc(C)nc3[nH]2)c1 | > 100 µM | > 100 µM | > 100 µM | > 100 µM | 26.8 µM | 23.2 µM | > 100 µM | 15.4 µM | > 100 µM | 2.07 µM | 
10 | O=[N+]([O-])c1ccc(Cl)cc1C1ON=C(c2ccccc2)N1C12CC3CC(CC(C3)C1)C2 (centres undefined) | > 100 µM | > 100 µM | > 100 µM | > 100 µM | > 100 µM | > 100 µM | > 100 µM | > 100 µM | > 100 µM | > 100 µM | > 100 µM
11 | Oc1ccc(-c2nc3cc(C(F)(F)F)ccc3n2CC2CCCN3CCCCC23)cc1 (centres undefined) | 28.3 µM | 38.8 µM | 30.3 µM | 25.2 µM | 32.2 µM | 31.5 µM | 28.1 µM | 27.7 µM |  | 35.8 µM | 30.3 µM
12 | C[n+]1c2ccccc2c(CNC(CCC(N)=O)C(=O)O)c2ccccc21 (centres undefined) | 5.41 µM | 7.53 µM | 6.51 µM | 7.73 µM | 18.3 µM | 2.54 µM | 6.71 µM | 10.5 µM | 7.36 µM | 3.71 µM | 12.9 µM
13 | CC(C)(C)c1cc(-c2ccc(-c3cc(C(C)(C)C)c(O)c(C(C)(C)C)c3)cc2)cc(C(C)(C)C)c1O | > 100 µM | > 100 µM | > 100 µM | > 100 µM | > 100 µM | > 100 µM | > 100 µM | > 100 µM | > 100 µM | > 100 µM | > 100 µM
14 | COC(=O)C1OC(O[C@H]2CC[C@]3(C)[C@H]4CC=C5[C@@H]6CC(C)(C)CC[C@]6(C(=O)OC)[C@H](O)C[C@@]5(C)[C@]4(C)CC[C@H]3C2(C)C)C(O)C(O)C1O (some centres undefined) | 23.8 µM | 27.2 µM | 15 µM | 23.5 µM | 31.7 µM | 27.4 µM | 29.5 µM | 26.2 µM | 25.9 µM | 15.9 µM | 29.1 µM
15 | CC(C)(C)NC(NC(C)(C)C)=C(C(Cl)=C(Cl)Cl)[N+](=O)[O-] | > 100 µM | > 100 µM | > 100 µM | > 100 µM | > 100 µM | > 100 µM | > 100 µM | > 100 µM | > 100 µM | > 100 µM | > 100 µM
16 | N#Cc1c(=O)c2cc([N+](=O)[O-])ccc2n2c1[nH]c1ccccc12 | > 93.5 µM | > 92 µM | > 23.4 µM | > 86.5 µM | > 51 µM | > 100 µM | > 100 µM | 28.3 µM | > 100 µM | 96.6 µM | > 72 µM
17 | N#CC1C(=O)Nc2sc(C(=O)c3ccc(Br)cc3)c(N)c2C12CCCCC2 (centres undefined) | > 100 µM | > 100 µM | > 100 µM | > 100 µM | 80.8 µM | > 100 µM | > 100 µM | 32.5 µM | > 100 µM | > 100 µM | > 100 µM
18 | COc1ccc(C(=O)N2CCN(c3ccc4c(c3)OCC(=O)N4)CC2)cc1 | > 100 µM | > 100 µM |  | > 100 µM | > 100 µM | > 100 µM | > 100 µM | > 100 µM | > 100 µM | > 100 µM | > 100 µM
